Experimental data taken from patent US20100113517A1, “METHOD FOR THE TREATMENT OF FABRY DISEASE USING PHARMACOLOGICAL CHAPERONES” (AMICUS THERAPEUTICS, INC., priority 2007, published 2010).
“And” between values parts separate entries of the source, which are not always exact repeats. Identical values can stand only once. Like-named read-outs stand apart in the source and are kept apart here.

Tests used:
α-Gal A = molecular target: T1, α-Gal A (Homo sapiens, UniProt P06280); test: Phase Ib WBC α-Gal A enzymatic activity; assay type: in vivo, healthy volunteers (human)
T1 construct: α-Gal A activity was calculated in white blood cells (WBC) before dosing began; endogenous in cells; host or cells: white blood cells of healthy human volunteers
T1 sequence (P06280 32-429): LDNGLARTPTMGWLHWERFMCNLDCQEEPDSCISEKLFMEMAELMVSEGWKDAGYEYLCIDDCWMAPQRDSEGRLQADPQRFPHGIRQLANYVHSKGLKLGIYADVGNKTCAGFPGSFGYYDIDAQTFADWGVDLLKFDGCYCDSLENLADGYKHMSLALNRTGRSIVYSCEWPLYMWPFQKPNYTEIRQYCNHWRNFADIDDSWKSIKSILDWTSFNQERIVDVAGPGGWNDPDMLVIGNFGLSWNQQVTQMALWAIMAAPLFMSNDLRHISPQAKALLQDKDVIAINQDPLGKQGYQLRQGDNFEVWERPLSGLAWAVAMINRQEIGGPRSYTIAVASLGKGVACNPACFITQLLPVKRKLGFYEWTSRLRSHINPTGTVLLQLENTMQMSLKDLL
Description: WBC α-GAL A Enzymatic Activity Sampling. Blood samples (10 mL each) were collected in blood collection tubes containing EDTA and WBC extracted before dosing and at the following times thereafter: 100 hours, 150 hours, and 336 hours. Samples were treated as described above, and WBC α-Gal A enzymatic activity levels were determined as described in Desnick, R. J. (ed) Enzyme therapy in genetic diseases. Vol 2. Alan R Liss, New York, pp 17-32. Statistical Analysis. Safety data including laboratory evaluations, physical exams, adverse events, ECG monitoring and vital signs assessments were summarized by treatment group and point of time of collection. Descriptive statistics (arithmetic mean, standard deviation, median, minimum and maximum) were calculated for quantitative safety data as well as for the difference to baseline. Frequency counts were compiled for classification of qualitative safety data. In addition, a shift table describing out of normal range shifts was provided for clinical laboratory results. A normal-abnormal shift table was also presented for physical exam results and ECGs.

[1] = Phase Ib twice daily oral dose study, pharmacokinetics; assay type: in vivo, healthy volunteers (human); conditions: for half-life: read-out: t½ (converted)
Description: Study Design and Duration. […] Subjects were housed in the treatment facility from 14 hours prior to dosing until 24 hours after dosing. Meals were controlled by schedule and subjects remained abulatory for 4 hours post drug administration
Pharmacokinetic Sampling. Blood samples (10 mL each) were collected in blood collection tubes containing EDTA before dosing and at the following times thereafter: 0.25, 0.5, 0.75, 1, 1.5, 2, 3, 4, 5, 6, 7, 8, 9, 10, 11 and 12 hours. Blood samples were cooled in an ice bath and centrifuged under refrigeration as soon as possible. Plasma samples were divided into two aliquots and stored at […] pending assay. At the end of the study, all samples were transferred to MDS Pharma Services Analytical Laboratories (Lincoln) for analysis.
Pharmacokinetic parameters were summarised by treatment group using descriptive statistics (arithmetic means, standard deviations, coefficients of variation, sample size, minimum, maximum and median).

[2] = Phase II study in Fabry patients, cardiac, renal and central nervous system function; assay type: in vivo, Fabry patients (human); conditions: after 12 to 48 weeks of treatment
Description: Study Design. A two-arm design was planned. […] In the second arm, escalating doses of 25, 100, and then 250 mg b.i.d. over 6 weeks, followed by 50 mg/day for the remainder of the study. Cardiac anaylsis. In addition to the biopsies described above, MRIs and echocardiogram with strain rate evaluations will be performed at baseline, 3 and 6 months to assess cardiac morphology (e.g., left ventricular hyertrophy) and cardiac function (e.g., congestive heart failure, ischemia, infarction, arrhythmia). […] Hypertension will also be ealuated since hypertension (associated with renal dysfunction) can increase the risk for hemorrhagic stroke.

[3] = test system: mutant α-Gal A (R301Q or Q279E); conditions: lymphoblasts from Fabry patients with R301Q or Q279E mutations; cited from earlier work
[4] = human, plasma, oral, 50 mg, 50 mg bid, Day 1
[5] = human, plasma, oral, 50 mg, 50 mg bid, Day 7
[6] = human, plasma, oral, 150 mg, 150 mg bid, Day 1
[7] = human, plasma, oral, 150 mg, 150 mg bid, Day 7

inhibition of WBC α-Gal A enzymatic activity (α-Gal A; 50 mg b.i.d. or 150 mg b.i.d.): did not inhibit
WBC α-Gal A enzymatic activity (α-Gal A; 50 mg b.i.d., 100 hours): 120 % pre-dose levels
WBC α-Gal A enzymatic activity (α-Gal A; 50 mg b.i.d., 150 hours): 130 % pre-dose levels
WBC α-Gal A enzymatic activity (α-Gal A; 50 mg b.i.d., 336 hours): 145 % pre-dose levels
WBC α-Gal A enzymatic activity (α-Gal A; 150 mg b.i.d., 100 hours): 150 % pre-dose levels
WBC α-Gal A enzymatic activity (α-Gal A; 150 mg b.i.d., 150 hours): 185 % pre-dose levels
WBC α-Gal A enzymatic activity (α-Gal A; 150 mg b.i.d., 336 hours): 185 % pre-dose levels
12 h cumulative renal excretion ([1]; 50 mg bid, Day 1): 16% and 16 ± 6%
12 h cumulative renal excretion ([1]; 50 mg bid, Day 7): 48% and 48 ± 7%
Cmin ([1]; 50 mg bid, Day 7): 0.4 ± 0.03 µM
12 h cumulative renal excretion ([1]; 150 mg bid, Day 1): 42% and 42 ± 7%
12 h cumulative renal excretion ([1]; 150 mg bid, Day 7): 60% and 60 ± 5%
Cmin ([1]; 150 mg bid, Day 7): 1.2 ± 0.1 µM
time of peak concentrations, on average ([1]; all dose levels (50 and 150 mg b.i.d.)): approximately 3 hours
increase of Cmax with dose ([1]; doses increased from 50 mg to 150 mg): dose-proportional manner
concentration at 7 day ([1]; human, plasma, oral, 50 mg b.i.d., Day 7, read-out: Cmin): 0.4 µM
Cmax [1, 4]: 2.3 ± 0.3 µM
Tmax [1, 4]: 2.9 ± 0.4 h
Cmax [1, 5]: 3.9 ± 0.5 µM
Tmax [1, 5]: 2.5 ± 0.4 h
Cmax [1, 6]: 11.3 ± 1.5 µM
Tmax [1, 6]: 3.1 ± 0.4 h
Cmax [1, 7]: 10.8 ± 1.4 µM
Tmax [1, 7]: 2.9 ± 0.4 h
half-life ([1]; human, plasma, oral, 50 mg bid, Day 1): 2.5 h
half-life ([1]; human, plasma, oral, 150 mg bid, Day 1): 2.4 h
SMILES: OCC1NCC(O)C(O)C1O (stereo not shown) [DGJ, 1-deoxygalactonojirimycin]
cardiac, renal and central nervous system function [2]: no clinically meaningful changes
enhancement of mutant enzyme activity [3]: ≥ 45%
